From US20200179319A1, “PHARMACEUTICAL FORMULATIONS AND THEIR USE” (Signum Biosciences, Inc., priority 2016, published 2020) come the findings set out here.

Series [1] in a line: Stability Study 1: storage stability of a formulation comprising the disodium salt, HPLC. Particulars: 25° C., heading 30° C.; for % weight in formulation after 1 month: after 1 month storage; for % weight in formulation after 3 months: after 3 months storage; for % weight in formulation after 6 months: after 6 months storage; for % weight in formulation after 9 months: after 9 months storage; for Initial (% weight of formulation): formulation comprising the disodium salt. The format is physicochemical. As to the method: The stability of a formulation comprising the disodium salt of […] In each case, the percentage of 4-(((R)-1-carboxy-2-(((2E,6E)-3,7,11-trimethyldodeca-2,6,10-trien-1-yl)thio)ethyl)amino)-4-oxobutanoic acid remaining at each time point was determined by use of HPLC.

Series [2] can be described thus: Stability Study 2 conducted at 5° C.: storage stability of a formulation comprising the disodium salt, HPLC. In kind it is physicochemical. The settings on record: for weight percentage of the component, 1 months: 1 month at 5° C.; for weight percentage of the component, 2 months: 2 months at 5° C.; for weight percentage of the component, 3 months: 3 months at 5° C.; for weight percentage of the component, 6 months: 6 months at 5° C.; for weight percentage of the component, 9 months: 9 months at 5° C.; for weight percentage of the component, 12 months: 12 months at 5° C.; for weight percentage of the component, 18 months: 18 months at 5° C.; for weight percentage of the component, 24 months: 24 months at 5° C.; for weight percentage of the component, Initial: storage at 5° C. As to the method:
The stability of a formulation comprising the disodium salt of 4-(((R)-1-carboxy-2-(((2E,6E)-3,7,11-trimethyldodeca-2,6,10-trien-1-yl)thio)ethyl)amino)-4-oxobutanoic acid was determined after storage at 5° C. for a period of 1 month, 2 months, 3 months, 6 months, 9 months, 12 months, 18 months, and 24 months. In each case, the percentage of 4-(((R)-1-carboxy-2-(((2E,6E)-3,7,11-trimethyldodeca-2,6,10-trien-1-yl)thio)ethyl)amino)-4-oxobutanoic acid remaining at each time point was determined by use of HPLC. Each of the percentages in the table below are expressed at the weight percentage of the component as compared to the total weight of the composition.

`CC(C)=CCC/C(C)=C/CC/C(C)=C/CSC[C@H](NC(=O)CCC(=O)O)C(=O)O` [4-(((R)-1-carboxy-2-(((2E,6E)-3,7,11-trimethyldodeca-2,6,10-trien-1-yl)thio)ethyl)amino)-4-oxobutanoic acid]: in series [1], the “% weight in formulation after 1 month” value came out at 2.97%, the “% weight in formulation after 3 months” value is given as 3.13%, the “% weight in formulation after 6 months” value was found to be 2.92% and the “% weight in formulation after 9 months” value stood at 2.87%. The “Initial (% weight of formulation)” value in series [1] is reported as 3.09%. Further, in series [2], the “weight percentage of the component, 1 months” value (shortened to “weight percentage … 1 months”) came out at 3.01 weight percentage; the “weight percentage of the component, 2 months” value amounted to 3.00 weight percentage; the “weight percentage of the component, 3 months” value (from here on “weight percentage … 3 months”) is reported as 3.10 weight percentage; the “weight percentage of the component, 6 months” value (“weight percentage … 6 months” for short) turned out to be 3.04 weight percentage. For the same molecule, in series [2], the “weight percentage of the component, 9 months” value (“weight percentage … 9 months” for short) stood at 3.03 weight percentage; the “weight percentage of the component, 12 months” value (“weight percentage … 12 months” for short) is recorded as 3.06 weight percentage; the “weight percentage of the component, 18 months” value (from here on “weight percentage … 18 months”) is recorded as 3.10 weight percentage; the “weight percentage of the component, 24 months” value (from here on “weight percentage … 24 months”) is given as 3.05 weight percentage. In addition, the “weight percentage of the component, Initial” value (from here on “weight percentage … Initial”) in series [2] is recorded as 3.09 weight percentage.

Turning to `COC(=O)c1ccc(O)cc1` [Methylparaben], in series [1], the “% weight in formulation after 1 month” value is given as 0.17%, the “% weight in formulation after 3 months” value is reported as 0.17%, the “% weight in formulation after 6 months” value was found to be 0.17% and the “% weight in formulation after 9 months” value was 0.16%. Besides, the “Initial (% weight of formulation)” value in series [1] came to 0.17%. Besides, in series [2], the “weight percentage … 1 months” value is listed as 0.17 weight percentage; the “weight percentage of the component, 2 months” value is reported as 0.17 weight percentage; the “weight percentage … 3 months” value is listed as 0.17 weight percentage; the “weight percentage … 6 months” value is 0.18 weight percentage. Also, in series [2], the “weight percentage … 9 months” value is on record as 0.17 weight percentage; the “weight percentage … 12 months” value worked out at 0.17 weight percentage; the “weight percentage … 18 months” value came out at 0.17 weight percentage; the “weight percentage … 24 months” value amounted to 0.15 weight percentage. In series [2], the “weight percentage … Initial” value was determined as 0.17 weight percentage.

In the case of `CCCOC(=O)c1ccc(O)cc1` [Propylparaben], in series [1], the “% weight in formulation after 1 month” value is 0.033%, the “% weight in formulation after 3 months” value is on record as 0.034%, the “% weight in formulation after 6 months” value was found to be 0.032% and the “% weight in formulation after 9 months” value is on record as 0.033%. In addition, the “Initial (% weight of formulation)” value in series [1] was found to be 0.034%. For the same molecule, in series [2], the “weight percentage … 1 months” value came out at 0.032 weight percentage; the “weight percentage of the component, 2 months” value is recorded as 0.032 weight percentage; the “weight percentage … 3 months” value turned out to be 0.033 weight percentage; the “weight percentage … 6 months” value was determined as 0.032 weight percentage. In series [2], the “weight percentage … 9 months” value was 0.033 weight percentage; the “weight percentage … 12 months” value is reported as 0.032 weight percentage; the “weight percentage … 18 months” value stood at 0.033 weight percentage; the “weight percentage … 24 months” value came out at 0.030 weight percentage. Further, the “weight percentage … Initial” value in series [2] is listed as 0.034 weight percentage.
